Laboratory results: US5455230A, “Delta opioid receptor antagonists and their use as analgesic agents” (Aktiebolaget Astra, priority 1993, dated 1995)
Peptide text beside a SMILES is read from it.

Legend:
δ opioid receptor = biological target: T1, δ opioid receptor (Rattus norvegicus, UniProt P33533); test: δ opioid receptor binding assay, displacement of δ-selective radioligand from rat brain membranes; conditions: for Ki^μ /Ki^δ (δ-selectivity): ratio of μ and δ binding constants
T1 construct: from tissue; host or cells: rat brain (without cerebellum) membranes, Sprague-Dawley
T1 sequence (P33533 whole entry): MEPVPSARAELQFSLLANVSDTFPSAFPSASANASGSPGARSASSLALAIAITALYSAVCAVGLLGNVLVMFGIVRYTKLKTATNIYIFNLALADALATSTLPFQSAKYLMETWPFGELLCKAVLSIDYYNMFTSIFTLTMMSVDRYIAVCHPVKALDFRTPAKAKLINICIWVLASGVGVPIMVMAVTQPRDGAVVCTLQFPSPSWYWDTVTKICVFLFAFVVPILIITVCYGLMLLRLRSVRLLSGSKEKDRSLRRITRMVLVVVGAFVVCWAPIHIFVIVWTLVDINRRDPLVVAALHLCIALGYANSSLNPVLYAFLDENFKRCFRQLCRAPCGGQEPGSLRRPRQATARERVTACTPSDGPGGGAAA
From the text: (§1) In the case of κ-ligands guinea pig brain homogenates were used, since the relative proportion of κ-binding sites is higher in guinea pig brain than in rat brain. The experimental procedure being used in our laboratory represents a modified version of the binding assay described by Pastemak et al. (Mol. Pharmacol. 11,340-351, (1975)). Male Sprague-Dawley rats (300-350 g) from the Canadian Breeding Laboratories were decapitated and after removal of the cerebellum the brains were homogenized in 30 volumes of ice-cold standard buffer (50 mM Tris-HCl, pH 7.7). After centrifugation at 30,000×g for 30 min at 4° C. the membranes were reconstituted in the original volume of standard buffer and incubated for 30 min at 37° C. (to release bound endogenous ligands). […] The incubation was terminated by filtration through Whatman GF/B filters under vacuum at 4° C. Following two washings with 5 ml portions of ice-cold standard buffer the filters were transferred to scintillation vials and treated with 1 ml Protosol (New England Nuclear) for 30 min prior to the addition of 0.5 ml acetic acid and 10 ml Aquasol (New England Nuclear). After shaking for 30 min the vials were counted at an efficiency of 40-45%. All experiments were performed in duplicates and repeated at least three times. […] Values of half-maximal inhibition (IC50) of specific binding were obtained graphically from semilogarithmic plots.

μ opioid receptor = biological target: T2, μ opioid receptor (Rattus norvegicus, UniProt P33535); test: μ opioid receptor binding assay, displacement of [3H]DAMGO from rat brain membranes
T2 construct: from tissue; host or cells: rat brain (without cerebellum) membranes, Sprague-Dawley
T2 sequence (P33535 whole entry): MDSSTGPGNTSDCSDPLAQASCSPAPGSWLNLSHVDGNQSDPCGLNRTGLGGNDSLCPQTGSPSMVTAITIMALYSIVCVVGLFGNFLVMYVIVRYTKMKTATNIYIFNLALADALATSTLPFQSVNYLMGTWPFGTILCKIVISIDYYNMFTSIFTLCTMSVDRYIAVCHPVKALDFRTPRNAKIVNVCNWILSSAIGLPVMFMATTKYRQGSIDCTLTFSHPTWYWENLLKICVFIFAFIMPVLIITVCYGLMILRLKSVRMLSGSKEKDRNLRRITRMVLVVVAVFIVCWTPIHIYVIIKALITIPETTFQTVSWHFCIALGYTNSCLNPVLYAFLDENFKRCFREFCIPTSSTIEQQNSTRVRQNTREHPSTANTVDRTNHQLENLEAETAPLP
From the text: as §1

μ opioid receptors [1] = biological target: T3, μ opioid receptors (Cavia porcellus, UniProt P97266); test: GPI assay: inhibition of electrically evoked contractions of the guinea pig ileum; conditions: read-out: IC50 (μ agonist potency) in the GPI assay
T3 sequence (P97266 whole entry, looked up): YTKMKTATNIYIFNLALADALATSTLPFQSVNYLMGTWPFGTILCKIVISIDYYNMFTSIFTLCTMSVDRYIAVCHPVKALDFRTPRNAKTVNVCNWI
From the text: In the GPI assay the opioid effect is primarily mediated by μ opioid receptors, whereas in the MVD assay the inhibition of the contractions is mostly due to interaction with δ opioid receptors.

δ opioid receptors = biological target: T4, δ opioid receptors (Mus musculus, UniProt P32300); test: MVD assay: antagonism of δ agonist inhibition of electrically evoked contractions of the mouse vas deferens; conditions: comparison with the patent's best compounds
T4 construct: electrically evoked contractions of the mouse vas deferens (MVD); from tissue; host or cells: isolated mouse vas deferens
T4 sequence (P32300 whole entry): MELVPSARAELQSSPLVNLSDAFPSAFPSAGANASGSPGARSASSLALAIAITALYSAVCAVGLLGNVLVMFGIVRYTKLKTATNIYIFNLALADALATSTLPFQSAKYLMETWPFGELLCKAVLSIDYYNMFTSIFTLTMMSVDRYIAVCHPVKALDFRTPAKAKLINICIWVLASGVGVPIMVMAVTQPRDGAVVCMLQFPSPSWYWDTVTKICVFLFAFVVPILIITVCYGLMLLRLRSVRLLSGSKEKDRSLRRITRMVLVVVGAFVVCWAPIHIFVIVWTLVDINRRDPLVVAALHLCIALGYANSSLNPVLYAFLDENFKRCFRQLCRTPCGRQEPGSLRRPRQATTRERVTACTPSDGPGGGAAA
From the text: Biosassys based on inhibition of electrically evoked contractions of the mouse vas deferens (MVD) and of the guinea pig ileum (GPI). In the GPI assay the opioid effect is primarily mediated by μ opioid receptors, whereas in the MVD assay the inhibition of the contractions is mostly due to interaction with δ opioid receptors. Antagonist potencies in these assays are expressed as so-called Ke -values (H. W. Kosterlitz & A. J. Watt, Br. J. Pharmacol. 33, 266-276 (1968)).
The GPI and MVD bioassays were carried out as reported in P. W. Schiller et al Biochem. Biophys. Res. Commun 85, 1332-1338 (1978) and J. DiMaio et al, J. Med. Chem 25 1432-1438 (1982). A log dose-response curve was determind with [Leu^5 ]enkephalin as standard for each ileum and vas preparation, and IC50 values of the compounds being tested were normalized according to A. A Waterfield et al Eur. J. Pharmacod 58, 11-18 (1979). Ke values for the TIPP-related antagonists were determind from the ratio of IC50 values (DR) obtained in the presence and absence of a fixed antagonist concentration (a) (Ke =a/(DR-1) H. W. Kosterlitz & A. J. Watt, Br. J. Pharmacol. 33, 266-276 (1968). These determinations were made with the MVD assay, using three different δ -selective agonists ([Leu^5 ] enkephalin, DPDPE and [D-Ala^2 ]deltorphin I.

μ opioid receptors [2] = biological target: T3, μ opioid receptors; conditions: literature value, Portoghese J. Med. Chem. 34, 1757 (1991); cited from earlier work

With `NC(=O)[C@H](Cc1ccccc1)NC(=O)[C@@H]1Cc2ccccc2CN1C(=O)[C@@H](N)Cc1ccc(O)cc1` [H--Tyr--Tic--Phe--NH2] (HELM PEPTIDE1{Y.[Tic].F.[am]}$$$$V2.0) the Ki (δ opioid receptor) was 12 ± 1.3 nM, the “Ki^μ /Ki^δ (δ-selectivity)” value (δ opioid receptor) was 52.0 and the Ki (μ opioid receptor) was 624 ± 79 nM.
With `N[C@@H](Cc1ccc(O)cc1)C(=O)N1Cc2ccccc2C[C@H]1C(=O)N[C@@H](Cc1ccccc1)C(=O)O` [H--Tyr--Tic--Phe--OH] (HELM PEPTIDE1{Y.[Tic].F}$$$$V2.0) the “Ki^μ /Ki^δ (δ-selectivity)” value (δ opioid receptor) was 141.
In the case of `N[C@@H](Cc1ccc(O)cc1)C(=O)N1Cc2ccccc2C[C@H]1C(=O)N[C@@H](Cc1ccccc1)C(=O)N[C@@H](Cc1ccc([N+](=O)[O-])cc1)C(=O)O` [H--Tyr--Tic--Phe--Phe(p-NO2)--OH] (HELM PEPTIDE1{Y.[Tic].F.[O=C(O)[C@H](Cc1ccc([N+](=O)[O-])cc1)N[*:1]]}$$$$V2.0), the Ki (δ opioid receptor) is reported as 0.703 ± 0.099 nM, the “Ki^μ /Ki^δ (δ-selectivity)” value (δ opioid receptor) is reported as 4110 and the Ki (μ opioid receptor) is reported as 2890 ± 660 nM.
In the case of `NC(=O)[C@H](Cc1ccccc1)NC(=O)[C@H](Cc1ccccc1)NC(=O)[C@@H]1Cc2ccccc2CN1C(=O)[C@@H](N)Cc1ccc(O)cc1` [H--Tyr--Tic--Phe--Phe--NH2] (HELM PEPTIDE1{Y.[Tic].F.F.[am]}$$$$V2.0), the “Ki^μ /Ki^δ (δ-selectivity)” value (δ opioid receptor) is reported as 26.3 and the IC50 (μ opioid receptors [1]) is reported as 1700 ± 220 nM.
For `NC(=O)[C@H](Cc1c[nH]c2ccccc12)NC(=O)[C@H](Cc1ccccc1)NC(=O)[C@@H]1Cc2ccccc2CN1C(=O)[C@@H](N)Cc1ccc(O)cc1` [H--Tyr--Tic--Phe--Trp--NH2] (HELM PEPTIDE1{Y.[Tic].F.W.[am]}$$$$V2.0), the Ki (δ opioid receptor) was 1.21 ± 0.19 nM, the “Ki^μ /Ki^δ (δ-selectivity)” value (δ opioid receptor) was 258 and the Ki (μ opioid receptor) was 312 ± 75 nM.
For `N[C@@H](Cc1ccc(O)cc1)C(=O)N1Cc2ccccc2C[C@H]1C(=O)N[C@@H](Cc1c[nH]c2ccccc12)C(=O)N[C@@H](Cc1ccc([N+](=O)[O-])cc1)C(=O)O` [H--Tyr--Tic--Trp--Phe(p-NO2)--OH] (HELM PEPTIDE1{Y.[Tic].W.[O=C(O)[C@H](Cc1ccc([N+](=O)[O-])cc1)N[*:1]]}$$$$V2.0), the Ki (δ opioid receptor) was 0.33 ± 0.004 nM, the “Ki^μ /Ki^δ (δ-selectivity)” value (δ opioid receptor) was 4610 and the Ki (μ opioid receptor) was 1520 ± 42 nM.
With `NC(=O)[C@H](Cc1ccccc1)NC(=O)[C@H](Cc1c[nH]c2ccccc12)NC(=O)[C@@H]1Cc2ccccc2CN1C(=O)[C@@H](N)Cc1ccc(O)cc1` [H--Tyr--Tic--Trp--Phe--NH2] (HELM PEPTIDE1{Y.[Tic].W.F.[am]}$$$$V2.0) the Ki (δ opioid receptor) was 0.248 ± 0.009 nM, the “Ki^μ /Ki^δ (δ-selectivity)” value (δ opioid receptor) was 709 and the Ki (μ opioid receptor) was 176 ± 21 nM.
For `N[C@@H](Cc1ccc(O)cc1)C(=O)N1Cc2ccccc2C[C@H]1C(=O)N[C@@H](Cc1c[nH]c2ccccc12)C(=O)N[C@@H](Cc1ccccc1)C(=O)O` [H--Tyr--Tic--Trp--Phe--OH] (HELM PEPTIDE1{Y.[Tic].W.F}$$$$V2.0), the Ki (δ opioid receptor) was 0.301 ± 0.042 nM, the “Ki^μ /Ki^δ (δ-selectivity)” value (δ opioid receptor) was 5950 and the Ki (μ opioid receptor) was 1790 ± 380 nM.
In the case of `C=CCN(CC=C)[C@@H](Cc1ccc(O)cc1)C(=O)NC(C)(C)C(=O)NC(C)(C)C(=O)N[C@@H](Cc1ccccc1)C(=O)N[C@@H](CC(C)C)C(=O)O` [ICI 174864, N,N--diallyl--Tyr--Aib--Aib--Phe--Leu--OH, reference compound] (HELM PEPTIDE1{[C=CCN(CC=C)[C@@H](Cc1ccc(O)cc1)C(=O)[*:2]].[Aib].[Aib].F.L}$$$$V2.0), the “δ-selectivity compared with the most potent and selective δ antagonists of the patent” value (δ opioid receptor; comparison with the patent's best compounds) is reported as 40 times less and the “antagonist potency in the MVD assay compared with the most potent and selective δ antagonists of the patent” value (δ opioid receptors) is reported as 20 times less potent.
In the case of `Oc1ccc2c3c1O[C@H]1c4[nH]c5ccccc5c4C[C@@]4(O)[C@@H](C2)N(CC2CC2)CC[C@]314` [Naltrindole, naltrindole, reference compound], the Ki (δ opioid receptor) is given as 0.687 ± 0.1 nM and the “Ke (antagonist properties) in the guinea pig ileum (GPI) assay” value (μ opioid receptors [2]) is given as 29 nM.
